Measurements as given in patent publication US20260022143A1, “Cyclic Peptide Inhibitors of IL-23” (JANSSEN PHARMACEUTICA NV, priority 2022, published 2026).
Where a name gives a salt, the structure may show the parent alone. Starred links: 1 amine or outer side, 2 acyl side, 3 side chain; linkers in the order of their positions; H or OH if unused. Positions of bridges follow the written chain, without caps; N, C: chain ends. Non-standard residues stand in square brackets, D forms with d. Residues, ends and D or L forms follow the SMILES beside them. Groups on a side chain read outwards from the residue. *: point of attachment. Me3N+(CH2)2O(CH2)2O(CH2)2CO = C[N+](C)(C)CCOCCOCCC(=O)*; CH2CH2OCH2CH2OCH2CH2NMe3+ = C[N+](C)(C)CCOCCOCC*; Trp(7-Me) = Cc1cccc2c(C[C@H](N)C(=O)O)c[nH]c12; d(hLys(Me3)) = C[N+](C)(C)CCCCC[C@@H](N)C(=O)O; Hexanoyl(6-NMe3+) = C[N+](C)(C)CCCCCC(=O)*; dLys(Me3) = C[N+](C)(C)CCCC[C@@H](N)C(=O)O; γGlu = O=C(O)[C@H](CCC(=O)[*:2])N[*:1]; 2Nal = N[C@@H](Cc1ccc2ccccc2c1)C(=O)O; AEF = NCCOc1ccc(C[C@H](N)C(=O)O)cc1; 3Pal = N[C@@H](Cc1cccnc1)C(=O)O; Myristoyl = CCCCCCCCCCCCCC(=O)*; Cit = NC(=O)NCCC[C@H](N)C(=O)O; Lys(Me) = CNCCCC[C@H](N)C(=O)O; Pen = CC(C)(S)[C@H](N)C(=O)O; X31 = N=C(N)NCCOCCC(=O)*; Thp = NC1(C(=O)O)CCOCC1; X3 = C[N+](C)(C)CCCCC*; AEEA = NCCOCCOCC(=O)O; Me2NCH2CH2 = CN(C)CC*; Tfa = O=C(C(F)(F)F)*; Sar = CNCC(=O)O

Experiments:
IL-23R = target: T1, IL-23R (Homo sapiens, UniProt Q5VWK5); assay: IL23R Reporter Assay; assay type: cell-based; conditions: HEK293 cells containing IL-23R, IL-12RP1 and STAT-inducible firefly luciferase reporter; 10 ng/mL IL-23 (EC90); 5 h at 37° C.; read-out: IL23R Reporter Assay
T1 construct: host or cells: HEK293
T1 sequence (Q5VWK5 24-629): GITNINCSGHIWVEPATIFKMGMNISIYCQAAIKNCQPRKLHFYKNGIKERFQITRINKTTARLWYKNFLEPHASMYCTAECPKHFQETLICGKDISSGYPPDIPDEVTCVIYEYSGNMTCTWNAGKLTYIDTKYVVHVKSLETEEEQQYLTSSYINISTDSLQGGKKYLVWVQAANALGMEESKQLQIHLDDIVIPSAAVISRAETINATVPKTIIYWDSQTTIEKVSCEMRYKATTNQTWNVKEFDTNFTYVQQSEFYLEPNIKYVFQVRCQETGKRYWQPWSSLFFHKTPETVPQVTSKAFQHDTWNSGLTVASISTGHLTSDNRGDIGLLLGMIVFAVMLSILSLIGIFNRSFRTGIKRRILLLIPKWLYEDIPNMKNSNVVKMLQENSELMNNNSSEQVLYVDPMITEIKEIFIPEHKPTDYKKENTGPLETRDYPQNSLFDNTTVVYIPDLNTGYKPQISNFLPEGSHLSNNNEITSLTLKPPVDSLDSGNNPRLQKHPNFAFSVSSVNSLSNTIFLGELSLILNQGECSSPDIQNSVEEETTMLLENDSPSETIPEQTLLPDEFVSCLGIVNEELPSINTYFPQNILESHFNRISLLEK

[1] = Exposed Polar Surface Area (EPSA); assay type: physicochemical; conditions: SFC on Chirex 3014 column; sample 1 mM DMSO stock; read-out: EPSA
Method in brief: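 EPSA, in Å^2, is read from SFC retention time through a linear relationship established with eight calibration standards. Separation uses a Chirex 3014 stationary phase, 35 °C, 14 MPa back pressure, and a 5–60% methanol/ammonium formate modifier gradient in CO2.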

IC50 (IL-23R) | EPSA [1] | SMILES
1.2 nM | 157 A^2 | CC(=O)N(C)CCCC[C@@H]1NC(=O)[C@H](Cc2c[nH]c3c(C)cccc23)NC(=O)[C@H]([C@@H](C)O)NC(=O)[C@H](CC(=O)N(C)C)NC(=O)[C@@H](NC(=O)CCOCCOCC[N+](C)(C)C)C(C)(C)SSC(C)(C)[C@@H](C(=O)N[C@@H](Cc2ccc(OCCCCC[N+](C)(C)C)cc2)C(=O)N[C@@H](Cc2ccc3ccccc3c2)C(=O)NC2(C(=O)N[C@@H](CCCNC(N)=O)C(=O)N[C@@H](CC(N)=O)C(=O)N[C@@H](Cc3cccnc3)C(=O)N(C)CC(=O)N(C)C)CCOCC2)NC1=O [compound 327, cPEG3aCO-Pen(3)-N(N(Me)2)-T-7MeW-K(NMeAc)-Pen(3)-TMAPF-2Nal-THP-Cit-N-3Pya-Sar-CON(Me)2] ({Me3N+(CH2)2O(CH2)2O(CH2)2CO}-[Pen]D(NMe2)T[Trp(7-Me)][Lys(Me)](Ac)[Pen]Y(X3)[2Nal][Thp][Cit]N[3Pal][Sar]-NMe2; disulfide 1-6)
1.4 nM | 157 A^2 | CC(=O)N(C)CCCC[C@H](NC(=O)C1(NC(=O)[C@H](Cc2ccc3ccccc3c2)NC(=O)[C@H](Cc2ccc(OCCCCC[N+](C)(C)C)cc2)NC(=O)[C@H]2NC(=O)[C@H](CCCCNC(=O)CCOCCOCC[N+](C)(C)C)NC(=O)[C@H](Cc3c[nH]c4c(C)cccc34)NC(=O)[C@H]([C@@H](C)O)NC(=O)[C@H](CC(=O)N(C)C)NC(=O)[C@@H](NC(=O)CCOCCOCC[N+](C)(C)C)C(C)(C)SSC2(C)C)CCOCC1)C(=O)N[C@@H](CC(N)=O)C(=O)N[C@@H](Cc1cccnc1)C(=O)N(C)CC(=O)N(C)C [compound 384, cPEG3aCO-Pen(3)-N(N(Me)2)-T-7MeW-K(cPEG3a)-Pen(3)-TMAPF-2Nal-THP-K(NMeAc)-N-3Pya-Sar-CON(Me)2] ({Me3N+(CH2)2O(CH2)2O(CH2)2CO}-[Pen]D(NMe2)T[Trp(7-Me)]K(Me3N+(CH2)2O(CH2)2O(CH2)2CO)[Pen]Y(X3)[2Nal][Thp][Lys(Me)](Ac)N[3Pal][Sar]-NMe2; disulfide 1-6)
29 nM | 154 A^2 | CCCCCCCCCCCCCC(=O)N[C@@H](CCC(=O)NCCOCCOCC(=O)NCCOCCOCC(=O)NCCCC[C@H](NC(=O)[C@H](Cc1ccc2ccccc2c1)NC(=O)[C@H](Cc1ccc(OCCCCC[N+](C)(C)C)cc1)NC(=O)[C@H]1NC(=O)[C@H](CCCCN(C)C(C)=O)NC(=O)[C@H](Cc2c[nH]c3c(C)cccc23)NC(=O)[C@H]([C@@H](C)O)NC(=O)[C@H](CC(=O)N(C)C)NC(=O)[C@@H](NC(=O)[C@@H](CCCCC[N+](C)(C)C)NC(=O)COCCOCCNC(=O)COCCOCCNC(=O)CC[C@H](NC(=O)CCCCCCCCCCCCC)C(=O)O)C(C)(C)SSC1(C)C)C(=O)N[C@@H](CC(N)=O)C(=O)N[C@@H](Cc1cccnc1)C(=O)N(C)CC(=O)N(C)C)C(=O)O [compound 570, C14gEPEG2PEG2CO-hk(Me)3-Pen(3)-N(N(Me)2)-T-7MeW-K(NMeAc)-Pen(3)-TMAPF-2Nal-K(PEG2PEG2gEC14)-N-3Pya-Sar-CON(Me)2] ({Myristoyl-γGlu-AEEA-AEEA}-[d(hLys(Me3))][Pen]D(NMe2)T[Trp(7-Me)][Lys(Me)](Ac)[Pen]Y(X3)[2Nal]K([AEEA-AEEA-γGlu-Myristoyl])N[3Pal][Sar]-NMe2; disulfide 2-7)
3 nM | 164 A^2 | CC(=O)N(C)CCCC[C@@H]1NC(=O)[C@H](Cc2c[nH]c3ccccc23)NC(=O)[C@H]([C@@H](C)O)NC(=O)[C@H](CC(=O)N(C)C)NC(=O)[C@@H](NC(=O)CCOCCOCC[N+](C)(C)C)C(C)(C)SSC(C)(C)[C@@H](C(=O)N[C@@H](Cc2ccc(OCCCCC[N+](C)(C)C)cc2)C(=O)N[C@@H](Cc2ccc3ccccc3c2)C(=O)NC2(C(=O)N[C@@H](CCCCN(C)C(C)=O)C(=O)N[C@@H](CC(N)=O)C(=O)N[C@@H](Cc3cccnc3)C(=O)N(C)CC(=O)N(C)C)CCOCC2)NC1=O [compound 507, cPEG3aCO-Pen(3)-N(N(Me)2)-T-W-K(NMeAc)-Pen(3)-TMAPF-2Nal-THP-K(NMeAc)-N-3Pya-Sar-CONMe2] ({Me3N+(CH2)2O(CH2)2O(CH2)2CO}-[Pen]D(NMe2)TW[Lys(Me)](Ac)[Pen]Y(X3)[2Nal][Thp][Lys(Me)](Ac)N[3Pal][Sar]-NMe2; disulfide 1-6)
4.6 nM | 139 A^2 | Cc1cccc2c(C[C@@H]3NC(=O)[C@H]([C@@H](C)O)NC(=O)[C@H](CC(=O)N(C)C)NC(=O)[C@@H](NC(=O)[C@@H](CCCCNC(=O)CCCCC[N+](C)(C)C)NC(=O)C(F)(F)F)C(C)(C)SSC(C)(C)[C@@H](C(=O)N[C@@H](Cc4ccc(OCCN(C)C)cc4)C(=O)N[C@@H](Cc4ccc5ccccc5c4)C(=O)NC4(C(=O)N[C@@H](CCC(=O)N(C)C)C(=O)N[C@@H](CC(N)=O)C(=O)N[C@@H](Cc5cccnc5)C(=O)N(C)CC(=O)N(C)C)CCOCC4)NC(=O)[C@H](CCC(=O)N(C)C)NC3=O)c[nH]c12 [compound 96, CF3CO-k(5cpa)-Pen(3)-N(N(Me)2)-T-7MeW-Q(N(Me)2)-Pen(3)-AEF(N(Me)2)-2Nal-THP-Q(N(Me)2)-N-3Pya-Sar-CON(Me)2] (Tfa-[dK](Hexanoyl(6-NMe3+))[Pen]D(NMe2)T[Trp(7-Me)]E(NMe2)[Pen]Y(Me2NCH2CH2)[2Nal][Thp]E(NMe2)N[3Pal][Sar]-NMe2; disulfide 2-7)
4.3 nM | 157 A^2 | CC(=O)NCCCC[C@@H]1NC(=O)[C@H](Cc2c[nH]c3c(C)cccc23)NC(=O)[C@H]([C@@H](C)O)NC(=O)[C@H](CC(N)=O)NC(=O)[C@@H](NC(=O)[C@@H](CCCC[N+](C)(C)C)NC(=O)C(F)(F)F)C(C)(C)SSC(C)(C)[C@@H](C(=O)N[C@@H](Cc2ccc(OCCN)cc2)C(=O)N[C@@H](Cc2ccc3ccccc3c2)C(=O)NC2(C(=O)N[C@@H](CCCCNC(C)=O)C(=O)N[C@@H](CC(N)=O)C(=O)N[C@@H](Cc3cccnc3)C(=O)N(C)CC(N)=O)CCOCC2)NC1=O [compound 80] (Tfa-[dLys(Me3)][Pen]NT[Trp(7-Me)]K(Ac)[Pen][AEF][2Nal][Thp]K(Ac)N[3Pal][Sar]-NH2; disulfide 2-7 (inferred))
1.8 nM | 153 A^2 | CC(=O)N(C)CCCC[C@@H]1NC(=O)[C@H](Cc2c[nH]c3c(C)cccc23)NC(=O)[C@H]([C@@H](C)O)NC(=O)[C@H](CC(=O)N(C)C)NC(=O)[C@@H](NC(=O)CCOCCOCC[N+](C)(C)C)C(C)(C)SSC(C)(C)[C@@H](C(=O)N[C@@H](Cc2ccc(OCCOCCOCC[N+](C)(C)C)cc2)C(=O)N[C@@H](Cc2ccc3ccccc3c2)C(=O)NC2(C(=O)N[C@@H](C)C(=O)N[C@@H](CC(N)=O)C(=O)N[C@@H](Cc3cccnc3)C(=O)N(C)CC(=O)N(C)C)CCOCC2)NC1=O [compound 466, cPEG3aCO-Pen(3)-N(N(Me)2)-T-7MeW-K(NMeAc)-Pen(3)-APEG3F-2Nal-THP-A-N-3Pya-Sar-CON(Me)2] ({Me3N+(CH2)2O(CH2)2O(CH2)2CO}-[Pen]D(NMe2)T[Trp(7-Me)][Lys(Me)](Ac)[Pen]Y(CH2CH2OCH2CH2OCH2CH2NMe3+)[2Nal][Thp]AN[3Pal][Sar]-NMe2; disulfide 1-6)
0.85 nM | 157 A^2 | CC(=O)N(C)CCCC[C@@H]1NC(=O)[C@H](Cc2c[nH]c3c(C)cccc23)NC(=O)[C@H]([C@@H](C)O)NC(=O)[C@H](CC(=O)N(C)C)NC(=O)[C@@H](NC(=O)CCOCCOCC[N+](C)(C)C)C(C)(C)SSC(C)(C)[C@@H](C(=O)N[C@@H](Cc2ccc(OCCCCC[N+](C)(C)C)cc2)C(=O)N[C@@H](Cc2ccc3ccccc3c2)C(=O)NC2(C(=O)N[C@@H](CCCCN(C)C(C)=O)C(=O)N[C@@H](CC(N)=O)C(=O)N[C@@H](Cc3cccnc3)C(=O)N(C)CC(N)=O)CCOCC2)NC1=O [compound 326, cPEG3aCO-Pen(3)-N(N(Me)2)-T-7MeW-K(NMeAc)-Pen(3)-TMAPF-2Nal-THP-K(NMeAc)-N-3Pya-Sar-CONH2] ({Me3N+(CH2)2O(CH2)2O(CH2)2CO}-[Pen]D(NMe2)T[Trp(7-Me)][Lys(Me)](Ac)[Pen]Y(X3)[2Nal][Thp][Lys(Me)](Ac)N[3Pal][Sar]-NH2; disulfide 1-6)
1.2 nM | 148 A^2 | CC(=O)N(C)CCCC[C@@H]1NC(=O)[C@H](Cc2c[nH]c3c(C)cccc23)NC(=O)[C@H]([C@@H](C)O)NC(=O)[C@H](CC(=O)N(C)C)NC(=O)[C@@H](NC(=O)CCOCCNC(=N)N)C(C)(C)SSC(C)(C)[C@@H](C(=O)N[C@@H](Cc2ccc(OCCCCC[N+](C)(C)C)cc2)C(=O)N[C@@H](Cc2ccc3ccccc3c2)C(=O)NC2(C(=O)N[C@@H](CCCCN(C)C(C)=O)C(=O)N[C@@H](CC(N)=O)C(=O)N[C@@H](Cc3cccnc3)C(=O)N(C)CC(=O)N(C)C)CCOCC2)NC1=O [compound 390, cPEG2gCO-Pen(3)-N(N(Me)2)-T-7MeW-K(NMeAc)-Pen(3)-TMAPF-2Nal-THP-K(NMeAc)-N-3Pya-Sar-CON(Me)2] (X31-[Pen]D(NMe2)T[Trp(7-Me)][Lys(Me)](Ac)[Pen]Y(X3)[2Nal][Thp][Lys(Me)](Ac)N[3Pal][Sar]-NMe2; disulfide 1-6)
